Among the test systems are SR leukemia; SK-OV-3 ovarian; RXF 393 renal; OVCAR-8 ovarian; OVCAR-5 ovarian; NCI-H460 lung; LOX IMVI melanoma; T-47D breast; PC-3 prostate; MDA-MB-231 breast; MCF7 breast.
Test in all cases: growth of human tumour cells (NCI), 48 h

Molecules are shown by their SMILES.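 Briefly, cells in 96-well plates were exposed to five compound concentrations for 48 h, and endpoints were estimated by linear interpolation. GI50 marks 50% less growth. TGI is the concentration that stops growth completely.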

On to `C/C(=N/N)c1sc(-c2nc(C)c(/C(C)=N\N)s2)nc1C`, for which the TGI in the assay on SR leukemia was 36.4 µM; in the assay with SK-OV-3 ovarian it was > 100 µM; with RXF 393 renal, > 100 µM; in the assay with OVCAR-8 ovarian, > 100 µM; in the assay with OVCAR-5 ovarian, > 100 µM; in the assay with NCI-H460 lung, > 100 µM. Moreover, in the assay with LOX IMVI melanoma, the TGI was > 75.2 µM.

In the case of `C/C=C1/C(=Cc2[nH]c(C=c3[nH]/c(=C/C4=NC(=O)C(CC)=C4C)c(C)c3CCC(=O)O)c(CCC(=O)O)c2C)NC(=O)C1C` (stereo unspecified), the TGI in the assay on SR leukemia is > 50 µM; in the assay with SK-OV-3 ovarian, > 50 µM; in the assay on RXF 393 renal, > 50 µM; with OVCAR-8 ovarian it was 5 µM; in the assay on OVCAR-5 ovarian it was 27.4 µM; in the assay with NCI-H460 lung, 40.6 µM. In the assay on LOX IMVI melanoma, this molecule came in with a TGI of 2.61 µM.

For the molecule `CCOC(OC1=C(C#N)CCCC1)C(CC)[Se]c1ccccc1[N+](=O)[O-]` (stereo unspecified), the TGI in the assay on SR leukemia is 38.9 µM; with SK-OV-3 ovarian it was > 100 µM; in the assay on RXF 393 renal, 65.7 µM; in the assay with OVCAR-8 ovarian it was 48.7 µM; in the assay with OVCAR-5 ovarian it was 66.8 µM; with NCI-H460 lung, > 100 µM. The molecule also registered a TGI with LOX IMVI melanoma of 30.9 µM.

For the molecule `COc1cc([C@@H]2c3cc4c(cc3[C@@H](NC(=O)NO)[C@H]3COC(=O)[C@H]23)OCO4)cc(OC)c1O`, the TGI with SR leukemia, in the assay with OVCAR-8 ovarian, in the assay with T-47D breast, in the assay on PC-3 prostate, in the assay with MDA-MB-231 breast and with NCI-H460 lung was > 100 µM each time. In addition, the TGI in the assay on MCF7 breast and in the assay with LOX IMVI melanoma was > 100 µM throughout. Also, the results for the GI50 in the assay with OVCAR-8 ovarian and in the assay on MCF7 breast were 34.4 µM and 7.84 µM, respectively.

Regarding `COC1(C)CNCC(C)(C)NC(=O)C(C)(OC)CNCC(C)(C)NC1=O` (stereo unspecified), the TGI with SK-OV-3 ovarian, in the assay on RXF 393 renal, with OVCAR-8 ovarian, in the assay on OVCAR-5 ovarian, with NCI-H460 lung and in the assay with LOX IMVI melanoma was > 100 µM in each case.

`Cc1ccc2c(c1)CC1(C2)Cc2ccc(C)cc2C1=O` (stereo unspecified): the TGI was 57 µM in the assay on SR leukemia; > 100 µM with SK-OV-3 ovarian; 54.4 µM in the assay with RXF 393 renal; > 100 µM with OVCAR-8 ovarian; > 100 µM with OVCAR-5 ovarian; > 100 µM with T-47D breast. The TGI in the assay on PC-3 prostate was > 100 µM; with MDA-MB-231 breast, 62.5 µM; in the assay with NCI-H460 lung, 55.5 µM; in the assay with MCF7 breast, 89 µM; in the assay on LOX IMVI melanoma, 36.4 µM.

As for `CCCCCCCCCCCCCCCCCCOCC(O)CO` (stereo unspecified), the TGI in the assay on SK-OV-3 ovarian was > 25 µM; with RXF 393 renal, > 24.1 µM; in the assay on OVCAR-8 ovarian, > 25 µM; in the assay on OVCAR-5 ovarian, > 25 µM; in the assay with NCI-H460 lung it was > 23 µM; in the assay with MCF7 breast it was > 25 µM. For the same molecule, in the assay with LOX IMVI melanoma, the TGI is > 25 µM.

For `CC(C)=CCOc1ccc(-c2coc3cc4c(c(O)c3c2=O)C=CC(C)(C)O4)cc1`, the TGI in the assay on SR leukemia, with RXF 393 renal, in the assay with OVCAR-8 ovarian, in the assay on OVCAR-5 ovarian, with NCI-H460 lung and in the assay on LOX IMVI melanoma was > 100 µM each time.

As to `O=C1C2C3C=C4c5ccccc5N(c5ccccc5)C4([C@@H]2C(=O)N1c1ccc(F)cc1)[C@H]1C(=O)N(c2ccc(F)cc2)C(=O)[C@@H]31` (stereo partly specified), the TGI with SR leukemia, in the assay with RXF 393 renal, in the assay with OVCAR-8 ovarian, with OVCAR-5 ovarian and in the assay with LOX IMVI melanoma was > 100 µM each time.

For `Cc1ccc(O)c(C(c2cc(C)ccc2O)c2cc([N+](=O)[O-])ccc2O)c1`, the TGI with SR leukemia was 39.1 µM; in the assay on SK-OV-3 ovarian, 37 µM; with RXF 393 renal it was 54 µM; in the assay with OVCAR-8 ovarian, 25.5 µM; in the assay with OVCAR-5 ovarian, 28.8 µM; in the assay with T-47D breast it was 77.8 µM. For the same molecule, the TGI with PC-3 prostate is 21.3 µM; in the assay with MDA-MB-231 breast, 22.3 µM; in the assay on MCF7 breast it was 33.8 µM; in the assay on LOX IMVI melanoma it was > 100 µM.

On to `CC(=O)OCC1OC(n2c(O)c(N=NC(N)=S)c3ccc([N+](=O)[O-])cc32)C(OC(C)=O)C1OC(C)=O` (stereo unspecified), for which the TGI is 60.2 µM in the assay with SR leukemia; > 100 µM in the assay with SK-OV-3 ovarian; 45.9 µM with RXF 393 renal; 43.1 µM in the assay on OVCAR-8 ovarian; > 100 µM in the assay on OVCAR-5 ovarian; 66.2 µM with NCI-H460 lung. Also, the TGI with LOX IMVI melanoma was 43.1 µM.

Regarding `O=c1c2ccccc2nc(N/N=C/c2ccc(Cl)cc2)n1-c1ccccc1`, the TGI with SR leukemia, in the assay with SK-OV-3 ovarian, in the assay on RXF 393 renal, with OVCAR-8 ovarian, in the assay on OVCAR-5 ovarian and in the assay with T-47D breast was > 100 µM in each case. Besides, the TGI in the assay with PC-3 prostate, in the assay on MDA-MB-231 breast, in the assay on NCI-H460 lung, in the assay with MCF7 breast and in the assay on LOX IMVI melanoma was > 100 µM in each case.

With `CC(O)C1OC(n2ccc(=O)[nH]c2=O)CC1n1cncn1` (stereo unspecified), the TGI in the assay with SR leukemia, in the assay with SK-OV-3 ovarian, in the assay on RXF 393 renal, with OVCAR-8 ovarian, with OVCAR-5 ovarian and in the assay with NCI-H460 lung was > 100 µM each time. For the same molecule, the TGI with LOX IMVI melanoma was > 100 µM.

In the case of `Nc1ncc2c(n1)-c1ccccc1OC2N1CCOCC1` (stereo unspecified), the TGI with SR leukemia, with SK-OV-3 ovarian, with RXF 393 renal, in the assay with OVCAR-8 ovarian, with OVCAR-5 ovarian and in the assay with PC-3 prostate was > 100 µM in each case. In addition, the TGI in the assay with MDA-MB-231 breast, in the assay on NCI-H460 lung, in the assay on MCF7 breast and in the assay with LOX IMVI melanoma was > 100 µM throughout.

On to `CCOC(=O)/C(=C\c1c(C)[nH]c2ccccc12)P(=O)(OCC)OCC`, for which the TGI with SR leukemia, in the assay on SK-OV-3 ovarian, with RXF 393 renal, in the assay on OVCAR-8 ovarian, in the assay with OVCAR-5 ovarian and in the assay on T-47D breast was > 100 µM throughout. Besides, the TGI in the assay with MDA-MB-231 breast, with NCI-H460 lung, with MCF7 breast and with LOX IMVI melanoma was > 100 µM in each case.
